Source: patent US9499534B2, “Thiazole-substituted aminopyrimidines as spleen tyrosine kinase inhibitors” (priority 2013, dated 2016)
pIC50: −log10 of the molar value.

target: recombinant human GST-SYK (Homo sapiens (Human), UniProt P43405); assay: Homogeneous Time-Resolved Fluorescence (HTRF) Assay for the Recombinant Human Syk Enzyme; format: biochemical; details: GST-SYK 5 pM, ATP 25 μM, biotinylated substrate peptide 250 nM, HTRF signal
Method: Homogeneous Time-Resolved Fluorescence (HTRF) Assay for the Recombinant Human Syk Enzyme
A recombinant GST-hSYK fusion protein was used to measure potency of compounds to inhibit human Syk activity. The recombinant human GST-SYK (Carna Biosciences #08-176) (5 pM final concentration) was incubated with various concentrations of the inhibitor diluted in DMSO (0.1% final concentration) for 10 minutes at room temperature in 15 mM Tris-HCl (pH 7.5), 0.01% tween 20, 2 mM DTT in 384 well plate format. To initiate the reaction the biotinylated substrate peptide (250 nM final concentration) that contains the phosphorylation site for Syk was added with magnesium (5 mM final concentration) and ATP (25 μM final concentration). Final volume of the reaction was 10 μL. Phosphorylation of the peptide was allowed to proceed for 45′ at room temperature. To quench the reaction and detect the phosphorylated product, 2 nM of a Europium-anti-phosphotyrosine antibody (Perkin Elmer #AD0161) and 70 nM SA-APC (Perkin-Elmer #CR130-100) were added together in 15 mM Tris pH 7.5, 40 mM EDTA, 0.01% tween 20. Final volume of the quenching solution was 10 μL.
The resulting HTRF signal was measured after 30 minutes on an EnVision (Perkin-Elmer) reader using a time-resolved fluorescence protocol. Table A below lists activities as IC50 values (nM) for representative compounds of the invention.

SMILES	pIC50
N#Cc1cc(Nc2nccc(C(F)(F)F)n2)cc(-c2cnc(C3(O)CCC(C(=O)O)CC3)s2)c1 (stereo not drawn) [Example 1.7, cis 4-[5-(3-cyano-5-{[4-(trifluoromethyl)pyrimidin-2-yl]amino}phenyl)-1,3-thiazol-2-yl]-4-hydroxycyclohexanecarboxylic acid]	8.07
Cn1cc(-c2cc(Nc3nccc(C(F)(F)F)n3)cc(-c3cnc([C@@]4(O)CC[C@H](C(=O)O)C(C)(C)C4)s3)c2)cn1 (single isomer, unassigned) [Example 2.1, (1R,4S or 1S,4R)-4-Hydroxy-2,2-dimethyl-4-(5-(3-(1-methyl-1H-pyrazol-4-yl)-5-((4-(trifluoromethyl)pyrimidin-2-yl)amino)phenyl)thiazol-2-yl)cyclohexanecarboxylic acid]	7.32
CC1(C)C[C@](O)(c2ncc(-c3cc(Nc4nccc(C(F)(F)F)n4)cc(-c4ccc(F)cc4)c3)s2)CC[C@H]1C(=O)O (single isomer, unassigned) [Example 2.6, (1R,4S or 1S,4R)-4-[5-(4′-fluoro-5-{[4-(trifluoromethyl)pyrimidin-2-yl]amino}biphenyl-3-yl)-1,3-thiazol-2-yl]-4-hydroxy-2,2-dimethylcyclohexanecarboxylic acid]	7.68
CC1(C)C[C@](O)(c2ncc(-c3cc(Nc4nccc(C(F)(F)F)n4)cc(-c4cccc(F)c4F)c3)s2)CC[C@H]1C(=O)O (single isomer, unassigned) [Example 2.14, (1R,4S or 1S,4R)-4-[5-(2′,3′-difluoro-5-{[4-(trifluoromethyl)pyrimidin-2-yl]amino}biphenyl-3-yl)-1,3-thiazol-2-yl]-4-hydroxy-2,2-dimethylcyclohexanecarboxylic acid]	7.89
CC1(C)C[C@](O)(c2ncc(-c3cc(Nc4nccc(C(F)(F)F)n4)cc(-c4cccc(C(=O)NC5CC5)c4)c3)s2)CC[C@H]1C(=O)O (single isomer, unassigned) [Example 2.9, (1R,4S or 1S,4R)-4-{5-[3′-(cyclopropylcarbamoyl)-5-{[4-(trifluoromethyl)pyrimidin-2-yl]amino}biphenyl-3-yl]-1,3-thiazol-2-yl}-4-hydroxy-2,2-dimethylcyclohexanecarboxylic acid]	8.56
CC1(C)CC(O)(c2ncc(-c3cc(Nc4nccc(C(F)(F)F)n4)cc(S(C)(=O)=O)c3)s2)CCC1C(=O)O (single isomer, unassigned) [Example 1.9, (1R,4S or 1S,4R)-4-hydroxy-2,2-dimethyl-4-{5-[3-(methylsulfonyl)-5-{[4-(trifluoromethyl)pyrimidin-2-yl]amino}phenyl]-1,3-thiazol-2-yl}cyclohexanecarboxylic acid]	8.29
CC1(C)C[C@@](O)(c2ncc(-c3cc(Nc4nccc(C(F)(F)F)n4)cc(-c4nccs4)c3)s2)CC[C@@H]1C(=O)O (single isomer, unassigned) [Example 3.1, (1R,4S or 1S,4R)-4-Hydroxy-2,2-dimethyl-4-(5-(3-(thiazol-2-yl)-5-((4-(trifluoromethyl)pyrimidin-2-yl)amino)phenyl)thiazol-2-yl)cyclohexanecarboxylic acid]	8.60
CC1(C)C[C@](O)(c2ncc(-c3cc(Nc4nccc(C(F)(F)F)n4)cc(-c4cnn(C(C)(C)C)c4)c3)s2)CC[C@H]1C(=O)O (single isomer, unassigned) [Example 2.2, (1R,4S or 1S,4R)-4-{5-[3-(1-tert-butyl-1H-pyrazol-4-yl)-5-{[4-(trifluoromethyl)pyrimidin-2-yl]amino}phenyl]-1,3-thiazol-2-yl}-4-hydroxy-2,2-dimethylcyclohexanecarboxylic acid]	6.54
Cc1cscc1-c1cc(Nc2nccc(C(F)(F)F)n2)cc(-c2cnc([C@]3(O)CC[C@@H](C(=O)O)C(C)(C)C3)s2)c1 (single isomer, unassigned) [Example 2.24, (1R,4S or 1S,4R)-4-hydroxy-2,2-dimethyl-4-{5-[3-(4-methylthiophen-3-yl)-5-{[4-(trifluoromethyl)pyrimidin-2-yl]amino}phenyl]-1,3-thiazol-2-yl}cyclohexanecarboxylic acid]	7.61
